Source: patent US11572590B2, “Methods for evaluating tumor cell spheroids using 3D microfluidic cell culture device” (Dana-Farber Cancer Institute, Inc., priority 2017, dated 2023)
Read-outs that look alike come from different tables or passages of the source.

How the values were obtained:
Assay in all cases: SelectScreen Kinase Profiling, single point inhibition and IC50 for off-target kinases
Assay type in all cases: biochemical
[1] = biological target: off-target kinases (Homo sapiens, UniProt Q8N568); settings: DCAMKL2 (DCK2), ZLYTE, ATP Km app
Sequence of off-target kinases (Homo sapiens, UniProt Q8N568) (Q8N568 whole entry): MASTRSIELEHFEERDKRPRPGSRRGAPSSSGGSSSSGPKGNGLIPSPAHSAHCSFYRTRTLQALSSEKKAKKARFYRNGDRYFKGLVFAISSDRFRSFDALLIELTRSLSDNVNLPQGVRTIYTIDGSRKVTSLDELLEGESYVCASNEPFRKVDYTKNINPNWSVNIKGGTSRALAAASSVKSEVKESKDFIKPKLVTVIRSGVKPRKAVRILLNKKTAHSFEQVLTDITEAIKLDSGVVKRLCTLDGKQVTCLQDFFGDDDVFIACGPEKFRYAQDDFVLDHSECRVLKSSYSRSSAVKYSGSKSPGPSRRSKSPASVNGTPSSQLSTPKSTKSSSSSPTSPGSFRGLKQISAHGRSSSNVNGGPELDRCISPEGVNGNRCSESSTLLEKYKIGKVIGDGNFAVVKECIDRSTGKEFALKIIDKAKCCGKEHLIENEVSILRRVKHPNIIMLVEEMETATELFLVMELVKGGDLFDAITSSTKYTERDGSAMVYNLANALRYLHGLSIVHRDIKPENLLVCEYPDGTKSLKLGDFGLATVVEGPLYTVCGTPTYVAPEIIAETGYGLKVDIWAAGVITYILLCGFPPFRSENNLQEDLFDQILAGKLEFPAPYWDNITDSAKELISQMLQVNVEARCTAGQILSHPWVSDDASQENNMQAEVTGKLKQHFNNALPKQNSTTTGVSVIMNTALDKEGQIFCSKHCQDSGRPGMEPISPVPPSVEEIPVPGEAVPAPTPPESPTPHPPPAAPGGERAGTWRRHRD

[2] = biological target: off-target kinases (Homo sapiens, UniProt P00519, H396P); settings: ABL1 H396P, LanthaScreen Binding
[3] = biological target: off-target kinases (Homo sapiens, UniProt P42356); settings: PI4KA (PI4K alpha), Adapta, ATP 10
[4] = biological target: off-target kinases (Homo sapiens, UniProt Q02750); settings: MAP2K1 (MEK1)
Sequence of off-target kinases (Homo sapiens, UniProt Q02750) (Q02750 whole entry): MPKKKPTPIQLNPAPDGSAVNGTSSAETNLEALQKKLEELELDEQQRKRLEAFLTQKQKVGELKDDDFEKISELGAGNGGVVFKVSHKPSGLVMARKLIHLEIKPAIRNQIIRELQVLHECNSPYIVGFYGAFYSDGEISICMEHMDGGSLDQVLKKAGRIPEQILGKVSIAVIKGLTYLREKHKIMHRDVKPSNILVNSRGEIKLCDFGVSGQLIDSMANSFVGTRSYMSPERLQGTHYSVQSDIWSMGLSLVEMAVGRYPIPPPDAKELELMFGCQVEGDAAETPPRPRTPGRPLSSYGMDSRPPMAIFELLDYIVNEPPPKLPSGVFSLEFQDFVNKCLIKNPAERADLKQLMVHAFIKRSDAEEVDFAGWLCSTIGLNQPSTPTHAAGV

[5] = biological target: off-target kinases (Homo sapiens, UniProt P10721, D816H); settings: KIT D816H, LanthaScreen Binding
[6] = biological target: off-target kinases (Homo sapiens, UniProt P35916); settings: FLT4 (VEGFR3), ATP Km app, ZLYTE
Sequence of off-target kinases (Homo sapiens, UniProt P35916) (P35916 25-1363): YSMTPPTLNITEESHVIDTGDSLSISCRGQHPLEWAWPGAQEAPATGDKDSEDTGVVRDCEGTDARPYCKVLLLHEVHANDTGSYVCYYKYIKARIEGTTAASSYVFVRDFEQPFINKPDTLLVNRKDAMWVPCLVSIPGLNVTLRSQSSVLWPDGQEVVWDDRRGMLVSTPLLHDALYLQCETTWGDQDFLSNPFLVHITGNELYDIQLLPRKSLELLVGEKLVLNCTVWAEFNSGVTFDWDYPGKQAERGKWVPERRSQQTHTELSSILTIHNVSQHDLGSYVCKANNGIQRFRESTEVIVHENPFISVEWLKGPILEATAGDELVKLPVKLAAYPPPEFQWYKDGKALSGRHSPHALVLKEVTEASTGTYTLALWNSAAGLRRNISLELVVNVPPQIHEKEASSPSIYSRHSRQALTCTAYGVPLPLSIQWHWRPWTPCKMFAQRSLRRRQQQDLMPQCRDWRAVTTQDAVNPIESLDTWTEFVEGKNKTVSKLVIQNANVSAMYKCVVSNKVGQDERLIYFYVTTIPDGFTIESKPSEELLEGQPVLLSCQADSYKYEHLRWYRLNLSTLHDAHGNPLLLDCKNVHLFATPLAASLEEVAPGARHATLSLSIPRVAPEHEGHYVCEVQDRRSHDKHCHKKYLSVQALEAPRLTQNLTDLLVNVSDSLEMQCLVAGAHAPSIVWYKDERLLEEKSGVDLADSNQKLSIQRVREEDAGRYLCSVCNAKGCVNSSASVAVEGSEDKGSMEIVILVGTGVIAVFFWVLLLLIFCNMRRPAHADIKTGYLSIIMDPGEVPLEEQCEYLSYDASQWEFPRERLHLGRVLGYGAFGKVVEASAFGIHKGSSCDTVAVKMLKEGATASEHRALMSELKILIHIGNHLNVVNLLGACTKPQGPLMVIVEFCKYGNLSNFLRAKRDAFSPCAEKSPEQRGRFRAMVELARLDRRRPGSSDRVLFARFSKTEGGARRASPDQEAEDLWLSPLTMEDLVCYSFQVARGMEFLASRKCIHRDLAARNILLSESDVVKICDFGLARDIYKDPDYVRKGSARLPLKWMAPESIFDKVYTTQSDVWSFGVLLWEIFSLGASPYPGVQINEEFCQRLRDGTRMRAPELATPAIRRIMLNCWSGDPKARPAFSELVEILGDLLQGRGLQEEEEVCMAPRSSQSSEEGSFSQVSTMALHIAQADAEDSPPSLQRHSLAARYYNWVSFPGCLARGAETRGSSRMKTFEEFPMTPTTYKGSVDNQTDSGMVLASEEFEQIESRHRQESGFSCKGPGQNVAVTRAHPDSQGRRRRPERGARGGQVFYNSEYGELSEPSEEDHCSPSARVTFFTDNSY

[7] = biological target: T1, off-target kinases (Homo sapiens, UniProt P33981); settings: TTK, LanthaScreen Binding
T1 sequence (P33981 1-857): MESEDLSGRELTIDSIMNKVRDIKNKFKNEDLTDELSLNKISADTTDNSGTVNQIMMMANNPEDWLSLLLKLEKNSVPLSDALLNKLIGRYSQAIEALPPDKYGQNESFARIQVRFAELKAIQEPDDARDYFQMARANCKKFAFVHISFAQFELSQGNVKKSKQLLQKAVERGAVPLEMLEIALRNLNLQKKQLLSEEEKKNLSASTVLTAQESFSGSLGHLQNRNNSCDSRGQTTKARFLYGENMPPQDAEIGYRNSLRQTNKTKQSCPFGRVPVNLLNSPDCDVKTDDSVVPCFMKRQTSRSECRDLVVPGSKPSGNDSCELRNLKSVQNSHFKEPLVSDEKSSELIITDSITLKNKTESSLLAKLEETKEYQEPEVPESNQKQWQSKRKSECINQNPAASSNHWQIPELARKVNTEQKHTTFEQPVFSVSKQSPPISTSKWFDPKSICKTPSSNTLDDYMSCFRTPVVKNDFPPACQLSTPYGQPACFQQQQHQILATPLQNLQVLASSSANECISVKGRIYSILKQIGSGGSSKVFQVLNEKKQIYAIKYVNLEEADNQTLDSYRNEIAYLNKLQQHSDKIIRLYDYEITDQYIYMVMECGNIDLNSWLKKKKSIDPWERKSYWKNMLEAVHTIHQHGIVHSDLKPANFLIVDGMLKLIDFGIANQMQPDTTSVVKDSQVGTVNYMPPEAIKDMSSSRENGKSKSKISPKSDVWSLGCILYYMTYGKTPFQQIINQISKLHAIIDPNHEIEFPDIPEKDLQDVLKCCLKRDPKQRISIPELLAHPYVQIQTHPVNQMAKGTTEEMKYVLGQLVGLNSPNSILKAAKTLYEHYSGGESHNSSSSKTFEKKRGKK

[8] = biological target: off-target kinases (Homo sapiens, UniProt Q96RG2); settings: PASK, ZLYTE, ATP Km app
Sequence of off-target kinases (Homo sapiens, UniProt Q96RG2) (Q96RG2 whole entry): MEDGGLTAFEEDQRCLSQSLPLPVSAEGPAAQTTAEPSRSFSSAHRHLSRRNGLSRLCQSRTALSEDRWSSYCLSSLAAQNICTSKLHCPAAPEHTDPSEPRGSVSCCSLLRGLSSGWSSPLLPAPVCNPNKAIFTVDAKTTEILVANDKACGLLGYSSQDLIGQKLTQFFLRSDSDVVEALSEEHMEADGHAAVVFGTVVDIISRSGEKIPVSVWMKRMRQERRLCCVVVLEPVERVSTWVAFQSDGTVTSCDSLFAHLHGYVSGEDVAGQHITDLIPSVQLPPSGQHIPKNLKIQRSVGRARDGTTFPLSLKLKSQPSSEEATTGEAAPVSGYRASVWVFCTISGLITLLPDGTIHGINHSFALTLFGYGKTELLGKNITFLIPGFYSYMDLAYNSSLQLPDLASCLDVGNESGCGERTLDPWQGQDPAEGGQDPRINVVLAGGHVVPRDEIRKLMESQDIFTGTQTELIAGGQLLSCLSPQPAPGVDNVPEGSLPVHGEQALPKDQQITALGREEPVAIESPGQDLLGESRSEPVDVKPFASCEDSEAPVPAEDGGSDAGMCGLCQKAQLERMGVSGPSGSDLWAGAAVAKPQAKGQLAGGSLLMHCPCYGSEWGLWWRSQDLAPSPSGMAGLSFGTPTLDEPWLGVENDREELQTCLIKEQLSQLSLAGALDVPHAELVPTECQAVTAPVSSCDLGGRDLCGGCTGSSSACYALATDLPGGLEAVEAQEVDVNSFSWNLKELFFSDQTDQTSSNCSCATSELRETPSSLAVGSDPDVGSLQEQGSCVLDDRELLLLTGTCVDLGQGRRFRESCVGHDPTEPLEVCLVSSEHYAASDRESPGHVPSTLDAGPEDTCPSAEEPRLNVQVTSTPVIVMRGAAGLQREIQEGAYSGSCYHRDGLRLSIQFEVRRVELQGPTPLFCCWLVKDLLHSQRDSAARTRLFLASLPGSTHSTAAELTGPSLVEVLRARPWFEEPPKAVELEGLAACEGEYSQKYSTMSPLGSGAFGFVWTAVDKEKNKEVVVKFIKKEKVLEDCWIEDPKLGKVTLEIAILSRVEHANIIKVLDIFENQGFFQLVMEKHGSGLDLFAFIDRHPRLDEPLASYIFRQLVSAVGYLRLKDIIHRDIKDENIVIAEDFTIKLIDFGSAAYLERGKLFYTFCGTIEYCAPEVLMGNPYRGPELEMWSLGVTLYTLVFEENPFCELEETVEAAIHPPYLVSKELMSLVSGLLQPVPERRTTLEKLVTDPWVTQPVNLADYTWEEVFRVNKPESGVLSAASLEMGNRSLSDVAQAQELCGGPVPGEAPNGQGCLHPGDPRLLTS

[9] = biological target: off-target kinases (Homo sapiens, UniProt Q14012); settings: CAMK1 (CaMK1), Adapta, ATP 10
Sequence of off-target kinases (Homo sapiens, UniProt Q14012) (Q14012 whole entry): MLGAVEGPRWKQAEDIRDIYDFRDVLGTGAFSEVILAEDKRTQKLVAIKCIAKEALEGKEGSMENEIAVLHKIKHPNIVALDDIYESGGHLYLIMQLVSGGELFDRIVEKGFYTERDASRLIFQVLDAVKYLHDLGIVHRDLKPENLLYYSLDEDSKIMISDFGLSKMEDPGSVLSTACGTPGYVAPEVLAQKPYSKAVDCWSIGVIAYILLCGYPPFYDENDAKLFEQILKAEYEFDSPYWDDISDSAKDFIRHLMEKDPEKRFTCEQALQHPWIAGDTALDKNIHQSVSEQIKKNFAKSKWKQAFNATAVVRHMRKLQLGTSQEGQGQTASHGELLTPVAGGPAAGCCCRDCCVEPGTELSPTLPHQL

Work on N#Cc1cc(-c2ncnc(Nc3ccc(N4CCN(C5COC5)CC4)cc3)n2)ccc1OC1CCOCC1 [Compound 1, 5-(4-((4-(4-(oxetan-3-yl)piperazin-1-yl)phenyl)amino)-1,3,5-triazin-2-yl)-2-((tetrahydro-2H-pyran-4-yl)oxy)benzonitrile] yielded an inhibition ([1]; read-out: % Inhibition 1) of 11%, an inhibition ([1]; read-out: % Inhibition 2) of 3% and an inhibition ([1]; read-out: % Inhibition Avg) of 7%. For the same molecule, the inhibition ([2]; read-out: % Inhibition 1) was 58%, the inhibition ([2]; read-out: % Inhibition 2) was 60% and the inhibition ([2]; read-out: % Inhibition Avg) was 59%. It also gave an inhibition ([3]; read-out: % Inhibition 1) of 3%, an inhibition ([3]; read-out: % Inhibition 2) of -3% and an inhibition ([3]; read-out: % Inhibition Avg) of 0%. The inhibition ([4]; LanthaScreen Binding, read-out: % Inhibition 1) was 6%, the inhibition ([4]; LanthaScreen Binding, read-out: % Inhibition 2) was 5% and the inhibition ([4]; LanthaScreen Binding, read-out: % Inhibition Avg) was 5%. For the same molecule, the inhibition ([4]; ZLYTE, ATP 100, read-out: % Inhibition 1) was 7%, the inhibition ([4]; ZLYTE, ATP 100, read-out: % Inhibition 2) was 3% and the inhibition ([4]; ZLYTE, ATP 100, read-out: % Inhibition Avg) was 5%. The inhibition ([5]; read-out: % Inhibition 1) was 90%, the inhibition ([5]; read-out: % Inhibition 2) was 94% and the inhibition ([5]; read-out: % Inhibition Avg) was 92%. For the same molecule, the inhibition ([6]; read-out: % Inhibition 1) was 64%, the inhibition ([6]; read-out: % Inhibition 2) was 60% and the inhibition ([6]; read-out: % Inhibition Avg) was 62%. The inhibition ([7]; read-out: % Inhibition 1) was 33%, the inhibition ([7]; read-out: % Inhibition 2) was 34% and the inhibition ([7]; read-out: % Inhibition Avg) was 33%. The inhibition ([8]; read-out: % Inhibition 1) was 3%, the inhibition ([8]; read-out: % Inhibition 2) was 1% and the inhibition ([8]; read-out: % Inhibition Avg) was 2%. The inhibition ([9]; read-out: % Inhibition 1) was 7%, the inhibition ([9]; read-out: % Inhibition 2) was 8% and the inhibition ([9]; read-out: % Inhibition Avg) was 7%.
